Data on 29 compounds can be found in patent publication US7563895B2, “Quinoxaline compounds” (Janssen Pharmaceutica, N.V., priority 2003, dated 2009).

SMILES strings stand for the structures.

The target of the experiment is T1, CCK2 receptor (Homo sapiens, UniProt P32239).
T1 construct: Membranes were prepared from the HEKZFP cells after induction; endogenous in cells; host or cells: HEKZFP cells (T-REx-293 with tet-inducible ZFP-VP16 specific for the CCK2R gene), doxycycline-induced; membrane preparation
T1 sequence (P32239 1-447): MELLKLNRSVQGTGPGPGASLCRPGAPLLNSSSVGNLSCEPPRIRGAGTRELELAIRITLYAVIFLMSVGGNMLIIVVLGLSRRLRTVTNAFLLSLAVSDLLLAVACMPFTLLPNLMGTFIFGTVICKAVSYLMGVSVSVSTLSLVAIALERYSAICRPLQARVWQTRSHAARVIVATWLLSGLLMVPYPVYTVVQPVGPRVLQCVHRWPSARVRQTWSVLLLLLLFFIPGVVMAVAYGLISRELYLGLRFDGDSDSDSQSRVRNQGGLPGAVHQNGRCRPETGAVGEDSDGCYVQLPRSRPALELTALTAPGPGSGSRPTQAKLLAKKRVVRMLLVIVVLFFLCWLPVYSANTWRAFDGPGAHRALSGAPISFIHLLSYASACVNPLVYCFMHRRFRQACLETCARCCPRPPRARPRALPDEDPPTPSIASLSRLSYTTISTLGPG
The experiment can be described thus: CCK2 receptor radioligand binding assay ([125I]-BH-CCK-8S, HEKZFP cell membranes). The conditions noted are these: competition with [125I]-BH-CCK-8S, membranes of induced HEKZFP cells, 60 min at 21±3° C., Cheng-Prusoff. The procedure: Zinc Finger Proteins (ZFP) specific for the CCK2R gene were identified by Sangamo Biosciences. The ZFP domain was fused with the herpes simplex virus VP16 activation domain, and the fusion protein was subsequently cloned into the pcDNA3 mammalian expression vector (Invitrogen, San Diego, Calif.). […] After 2 weeks of selection in culture medium containing […] Zeocin (Invitrogen), sixty drug-resistant stable clones were isolated and analyzed for ZFP expression as well as CCK2R induction upon addition of doxycycline to the culture medium.
HEKZFP cells were grown in DMEM supplemented with L-glutamine (2 mM), penicillin (50 units/mL) and streptomycin (50 μg/mL) and 10% FBS (v/v).
Membranes were prepared from the HEKZFP cells after induction. […] The thawed pellets were homogenized using a Polytron PT-10 (7×1 s). The homogenates were centrifuged for 5 min at 1500 rpm (600×g), and the resulting pellets were discarded. The supernatants were re-centrifuged in order to collect the receptor-membrane pellets (25 min 15,000 rpm; 39,800×g), which were re-suspended in buffer A.
The assay preparation was incubated for 1 h at 21±3° C., and then the assay was terminated by rapid filtration of the preparation under reduced pressure. The loaded filters were washed three times using undiluted PBS (100 μL), and then 100 μL of scintillation fluid was added to the filter plate. Bound radioactivity was determined using a Topcount (Packard BioScience, Meriden, Conn.) with a count time of 1 min. […] To validate the radioligand concentration and incubation time for the assay, saturation and kinetic binding studies were also conducted (see M. F. Morton, The Pharmacological Characterization of Cholecystokinin Receptors in the Human Gastrointestinal Tract. PhD Thesis, University of London, 2000). […] The assay was then terminated according to the procedure outlined above.
The pKi values were determined using the equation of Y.-C.
To circumvent problems associated with computer-assisted data analysis of compounds with low affinity, the data obtained in the current study were weighed according to a method described by Morton. In brief, 100% and 0% specific binding were defined independently using total binding and binding obtained in the presence of a high concentration of the reference antagonist, 2-NAP.

Broadly, the Ki is the dissociation constant of the complex between target and ligand, obtained from inhibition or displacement. Low values mean tighter binding, high ones weaker binding. What is called pKi is the Ki on a negative log10 scale, so that one unit is a factor of ten.

Consider `C[C@@H](NC(=O)c1ccc(Br)cc1NS(=O)(=O)c1cccc2nccnc12)c1ccc(Cl)cc1Cl` [Example 1, (R)-4-Bromo-N-[1-(2,4-dichlorophenyl)-ethyl]-2-(quinoxaline-5-sulfonylamino)-benzamide], for which affinity was put at a Ki of 7.94 nM.

On to `C[C@@H](NC(=O)c1ccc(Cl)cc1NS(=O)(=O)c1cccc2nccnc12)c1ccc(F)cc1F` [Example 3, (R)-4-Chloro-N-[1-(2,4-difluorophenyl)-ethyl]-2-(quinoxaline-5-sulfonylamino)-benzamide], for which the affinity, expressed as Ki, was 12.6 nM.

`O=C(c1ccc(I)cc1NS(=O)(=O)c1cccc2nccnc12)N1CCCCC1` [Example 4, Quinoxaline-5-sulfonic acid [5-iodo-2-(piperidine-1-carbonyl)-phenyl]-amide]: the affinity, expressed as Ki, was 25.1 nM.

In turn, `C[C@@H](NC(=O)c1cc(Cl)c(Cl)cc1NS(=O)(=O)c1cccc2nccnc12)c1ccc(F)cc1F` [Example 5, (R)-4,5-Dichloro-N-[1-(2,4-difluorophenyl)ethyl]-2-(quinoxaline-5-sulfonylamino)-benzamide] showed a Ki of 15.8 nM.

Consider `O=C(c1ccc(I)cc1NS(=O)(=O)c1cccc2nccnc12)N1CCOCC1` [Example 6, Quinoxaline-5-sulfonic acid [5-iodo-2-(morpholine-4-carbonyl)-phenyl]-amide], for which the pKi is recorded as 7.5.

`C[C@@H](NC(=O)c1ccc(Cl)cc1NS(=O)(=O)c1cccc2nccnc12)c1ccc(F)cc1` [Example 7, (R)-4-Chloro-N-[1-(4-fluorophenyl)-ethyl]-2-(quinoxaline-5-sulfonylamino)-benzamide] had an inhibition constant (Ki) of 31.6 nM.

`C[C@@H](NC(=O)c1ccc(Br)cc1NS(=O)(=O)c1cccc2nccnc12)c1ccc(F)cc1` [Example 8, (R)-4-Bromo-N-[1-(4-fluorophenyl)-ethyl]-2-(quinoxaline-5-sulfonylamino)-benzamide] showed a Ki of 39.8 nM.

With `C[C@H](NC(=O)c1ccc(Cl)cc1NS(=O)(=O)c1cccc2nccnc12)c1ccc(Cl)cc1Cl` [Example 9, (S)-4-Chloro-N-[1-(2,4-dichlorophenyl)ethyl]-2-(quinoxaline-5-sulfonylamino)-benzamide], affinity was put at a Ki of 39.8 nM.

Compound `O=C(c1ccc(Br)cc1NS(=O)(=O)c1cccc2nccnc12)N1CCCc2ccccc2C1` [Example 10, Quinoxaline-5-sulfonic acid [5-bromo-2-(1,3,4,5-tetrahydrobenzo[c]azepine-2-carbonyl)phenyl]-amide] showed a Ki of 50.1 nM.

In the case of `O=C(c1ccc(Br)cc1NS(=O)(=O)c1cccc2nccnc12)N1CCOCC1` [Example 11, (R)-Quinoxaline-5-sulfonic acid [5-bromo-2-(morpholine-4-carbonyl)-phenyl]-amide], the pKi is given as 7.2.

Consider `C[C@@H]1COCCN1C(=O)c1ccc(Br)cc1NS(=O)(=O)c1cccc2nccnc12` [Example 12, (R)-Quinoxaline-5-sulfonic acid [5-bromo-2-(3-methylmorpholine-4-carbonyl)-phenyl]-amide], for which the Ki is 79.4 nM.

Compound `O=C(c1ccc(Cl)cc1NS(=O)(=O)c1cccc2nccnc12)N1CCOCC1` [Example 14, (R)-Quinoxaline-5-sulfonic acid [5-chloro-2-(morpholine-4-carbonyl)phenyl]-amide] displayed a negative logarithm of the Ki (pKi) of 6.5.

In the case of `C[C@@H](NC(=O)c1ccc(I)cc1NS(=O)(=O)c1cccc2nccnc12)c1ccc(F)cc1F` [Example 15, (R)—N-[1-(2,4-Difluorophenyl)-ethyl]-4-iodo-2-(quinoxaline-5-sulfonylamino)-benzamide], the affinity, expressed as Ki, was 12.6 nM.

`O=C(NCc1ccc(F)cc1Cl)c1ccc(Br)cc1NS(=O)(=O)c1cccc2nccnc12` [Example 16, 4-Bromo-N-(2-chloro-4-fluoro-benzyl)-2-(quinoxaline-5-sulfonylamino)-benzamide] had a Ki of 39.8 nM.

In turn, `O=C(NCc1ccc(F)cc1F)c1ccc(Br)cc1NS(=O)(=O)c1cccc2nccnc12` [Example 17, 4-Bromo-N-(2,4-difluoro-benzyl)-2-(quinoxaline-5-sulfonylamino)-benzamide] had a Ki of 63.1 nM.

As for `O=C(c1ccc(I)cc1NS(=O)(=O)c1cccc2nccnc12)N1CCCCCC1` [Example 18, Quinoxaline-5-sulfonic acid [2-(azepane-1-carbonyl)-5-iodophenyl]-amide], the Ki is 63.1 nM.

With `C[C@@H]1COCCN1C(=O)c1ccc(I)cc1NS(=O)(=O)c1cccc2nccnc12` [Example 19, (R)-Quinoxaline-5-sulfonic acid [5-iodo-2-(3-methylmorpholine-4-carbonyl)-phenyl]-amide], the Ki is 79.4 nM.

The compound `O=C(c1cc(Cl)c(Cl)cc1NS(=O)(=O)c1cccc2nccnc12)N1CCOCC1` [Example 20, Quinoxaline-5-sulfonic acid [4,5-dichloro-2-(morpholine-4-carbonyl)-phenyl]-amide] showed a Ki of 79.4 nM.

On to `O=C(c1ccc(Br)cc1NS(=O)(=O)c1cccc2nccnc12)N1CCCCCC1` [Example 21, Quinoxaline-5-sulfonic acid [2-(azepane-1-carbonyl)-5-bromophenyl]-amide], for which the Ki is 126 nM.

Compound `O=C(c1ccc(Cl)cc1NS(=O)(=O)c1cccc2nccnc12)N1CCOc2ccccc2C1` [Example 22, Quinoxaline-5-sulfonic acid [5-chloro-2-(2,3-dihydro-5H-benzo[f][1,4]oxazepine-4-carbonyl)-phenyl]-amide] had a Ki of 158 nM.

On to `C[C@H]1COCCN1C(=O)c1ccc(I)cc1NS(=O)(=O)c1cccc2nccnc12` [Example 23, (S)-Quinoxaline-5-sulfonic acid [5-iodo-2-(3-methylmorpholine-4-carbonyl)-phenyl]-amide], for which affinity was put at a Ki of 251 nM.

Take `O=C(c1ccc(Br)cc1NS(=O)(=O)c1cccc2nccnc12)N1CCCc2cc(F)ccc2C1` [Example 24, Quinoxaline-5-sulfonic acid [5-bromo-2-(7-fluoro-1,3,4,5-tetrahydro-benzo[c]azepine-2-carbonyl)-phenyl]-amide]: the Ki is 316 nM.

`C[C@@H]1COC[C@H](C)N1C(=O)c1ccc(I)cc1NS(=O)(=O)c1cccc2nccnc12` [Example 25, (R,S)-Quinoxaline-5-sulfonic acid [2-(3,5-dimethylmorpholine-4-carbonyl)-5-iodophenyl]-amide] showed a Ki of 316 nM.

With `O=C(c1ccc(I)cc1NS(=O)(=O)c1cccc2nccnc12)N1CCC(O)CC1` [Example 26, Quinoxaline-5-sulfonic acid [2-(4-hydroxy-piperidine-1-carbonyl)-5-iodo-phenyl]-amide], the Ki is 316 nM.

Take `C[C@@H]1COC[C@H](C)N1C(=O)c1ccc(Br)cc1NS(=O)(=O)c1cccc2nccnc12` [Example 27, meso-Quinoxaline-5-sulfonic acid [2-(3,5-dimethylmorpholine-4-carbonyl)-5-bromophenyl]-amide]: the Ki was 316 nM.

Compound `C[C@H]1COCCN1C(=O)c1ccc(Br)cc1NS(=O)(=O)c1cccc2nccnc12` [Example 28, (S)-Quinoxaline-5-sulfonic acid [5-bromo-2-(3-methylmorpholine-4-carbonyl)-phenyl]-amide] showed a Ki of 398 nM.

Compound `O=C(N[C@@H](c1ccc(F)cc1F)C(F)(F)F)c1ccc(Cl)cc1NS(=O)(=O)c1cccc2nccnc12` [Example 29, (S)-4-Chloro-N-[1-(2,4-difluoro-phenyl)-2,2,2-trifluoroethyl]-2-(quinoxaline-5-sulfonylamino)-benzamide] gave a Ki of 501 nM.

In turn, `O=C(c1ccc(Br)cc1NS(=O)(=O)c1cccc2nccnc12)N1CCCCC1` [Example 32, Quinoxaline-5-sulfonic acid [5-bromo-2-(piperidine-1-carbonyl)-phenyl]-amide] displayed a pKi of 7.2.

For the compound `C[C@H](c1ccccc1)N(C)C(=O)c1ccc(Br)cc1NS(=O)(=O)c1cccc2nccnc12` [Example 33, (R)-4-Bromo-N-methyl-N-(1-phenyl-ethyl)-2-(quinoxaline-5-sulfonylamino)-benzamide], the Ki is 12.6 nM.
